Results from patent EP0199524B1, “Platinum tramine antitumor agents” (ENGELHARD CORPORATION, priority 1985, dated 1986).
Values joined by “and” are separate entries in the source; they are usually repeats but may differ in a detail not shown here. Identical values can stand only once.

Columns and labels:
[1] = system: S180 ascites; experiment: Screening for anti-tumor activity against S180 ascites (S180a) in mice; type: in vivo, female CFW Swiss mice; settings: for 30-Day Survivors / %ILS: medium H2O; for 30-Day Survivors: survivors/mice in set; for %ILS: injected day 1, S180a in mice, upper limit 100%
Description: The compounds were evaluated for anti-tumor activity against S180 ascites in female CFW Swiss mice by the following procedure: CFW mice, averaging 20g, are immediately inspected and placed in newly prepared cages. On day zero the mice are inoculated with 0.2 ml. of a freshly prepared saline suspension (0.15 M NaCl) containing 1 x 10⁷ tumor cells/ml, or a total of 2 x 10⁶ cells. This inoculum is freshly prepared using "transfer" mice which have been injected with tumor cells the previous week. This inoculum is the end-product of a series of steps which involves (1) the removal of the cells from the peritoneal cavity of the sacrificed transfer mouse, (2) alternate centrifugation-washing (2-3 times with cold saline) to remove occasional blood and other undesirable components, and finally (3) dilution (1:3) of the packed cell volume with saline (the final centrifugation being carried out at 1,000 rpm for 2 min.). A cell count is made on a 2,000-fold dilution of this 1:3 suspension by means of a Coulter Counter. A final dilution to 1 x 10⁷ cells/ml. is made based on the averaged count. On day 1, solutions of the test compounds are prepared and the mice injected, with each mouse of a set of six being injected with the same test compound at the same dose level.
ILS values above 50% represent significant activity; those above 75% represent excellent activity.

[2] = literature statement on charged platinum species; cited from earlier work
[3] = 8 mg/kg in saline, positive control run with each experiment, S180a in mice

Structure (SMILES)	30-Day Survivors ([1]; Dose 20 mg/kg, S180a in mice)	%ILS ([1]; Dose 20 mg/kg)	30-Day Survivors ([1]; Dose 40 mg/kg, S180a in mice)	%ILS ([1]; Dose 40 mg/kg)	30-Day Survivors ([1]; Dose 80 mg/kg, S180a in mice)	%ILS ([1]; Dose 80 mg/kg)	30-Day Survivors ([1]; Dose 160 mg/kg, S180a in mice)	%ILS ([1]; Dose 160 mg/kg)	30-Day Survivors ([1]; Dose 320 mg/kg, S180a in mice)	%ILS ([1]; Dose 320 mg/kg)	30-Day Survivors ([1]; Dose 10 mg/kg, S180a in mice)	%ILS ([1]; Dose 10 mg/kg)	also measured
N.N.Nc1cc[nH]c(=O)n1.[Cl-].[Cl][Pt+] [Example 6, Cis-chlorodiamminecytosineplatinum(II) chloride]	0/6	23%	1/6	58%	4/6	92%	3/6	68%	2/6	-16%			30-Day Survivors ([1]; Dose 640 mg/kg, S180a in mice): 0/6; %ILS ([1]; Dose 640 mg/kg): -74%
Cc1cc[n+]([Pt-2]([NH3+])([NH3+])[Cl])cc1.[Cl-] (stereo not drawn) [Example 5, Cis-chlorodiammine-4-methylpyridineplatinum(II)chloride]	1/6	27%	2/6	83%	1/6	66%	0/6	-77%	0/6	-91%	0/6	5%	
Cc1cccc(O)[n+]1[Pt-2]([NH3+])([NH3+])[Cl].[Cl-] (stereo not drawn) [Example 3, Cis-Chlorodiammine-6-methyl-2-hydroxypyridineplatinum(II) Chloride]	0/6	-6%	0/6	12%	0/6	15%	5/6	93%	3/6	93%	0/6	-9%	
Cc1ccc(O)c[n+]1[Pt-2]([NH3+])([NH3+])[Cl].[Cl-] (stereo not drawn) [Example 7, Cis-chlorodiammine-6-methyl-3-hydroxypyridineplatinum(II) chloride]	0/6	30%	2/6	70%	4/6	93%	3/6	82%	0/6	-49%			30-Day Survivors ([1]; Dose 640 mg/kg, S180a in mice): 0/6; %ILS ([1]; Dose 640 mg/kg): -75%
[Cl-].[Cl][Pt-2]1([n+]2ccccc2)[NH2+]C2CCCCC2[NH2+]1 (stereo not shown) [Example 19, Chloro-1,2-diaminocyclohexanepyridineplatinum(II) chloride]	0/6	8%	0/6	6%	0/6	15%	0/6	25%	0/6	-94%	0/6	6%	
[Cl-].[NH3+][Pt-2]([NH3+])([Cl])[n+]1ccc(Cl)cc1 (stereo not drawn) [Example 8, Cis-chlorodiammine-4-chloropyridineplatinum(II) chloride]	2/6	68%	4/6	77%	4/6	36%	0/6	-77%	0/6	-94%	0/6	22%	
N.N.Oc1ccccn1.[Cl-].[Cl][Pt+] [Example 2, Cis-Chlorodiammine-2-hydroxypyridineplatinum(II) Chloride]	0/6	28%	4/6 and 2/6		4/6 and 2/6		3/6	64%	0/6	-74%	0/6	15%	30-Day Survivors ([1]; Dose 5 mg/kg, S180a in mice): 0/6; %ILS ([1]; Dose 5 mg/kg): 15%; %ILS ([1]; Dose 40 mg/kg, 40 mg/kg): 95% and 78%; %ILS ([1]; Dose 80 mg/kg, 80 mg/kg): 91% and 80%; 30-Day Survivors ([1]; Dose 640 mg/kg, S180a in mice): 0/6; %ILS ([1]; Dose 640 mg/kg): -77%; 30-Day Survivors ([1]; Dose 1280 mg/kg, S180a in mice): 0/6; %ILS ([1]; Dose 1280 mg/kg): -84%
[Cl][Pt-2]([Cl])([Cl])[Cl].[K+].[K+] [K₂PtCl₄]													antitumor activity [2]: completely inactive
N.N.[Cl][Pt][Cl] [cis-[Pt(NH3)2Cl2], cis-diamminedichloroplatinum(II), reference compound]													Positive Control 30-Day Survivors [1, 3]: 2/6 and 4/6 and 1/6 and 3/6 and 2/7; Positive Control %ILS [1, 3]: 79% and 66% and 80% and 94% and 73% and 72% and 98%; optimum activity (dose) ([1]; under identical screening): 9 to 10 mg/kg
N.N.[Cl-].[Cl][Pt+].c1ccncc1 [Example 18, Trans-Chlorodiamminepyridineplatinum(II) Chloride]	0/6		0/6		0/6		0/6				0/6		30-Day Survivors ([1]; Dose 5 mg/kg, S180a in mice): 0/6; %ILS ([1]; Dose 5 mg/kg, 5 mg/kg): 2%; %ILS ([1]; Dose 10 mg/kg, 10 mg/kg): 7%; %ILS ([1]; Dose 20 mg/kg, 20 mg/kg): 6%; %ILS ([1]; Dose 40 mg/kg, 40 mg/kg): 15%; %ILS ([1]; Dose 80 mg/kg, 80 mg/kg): 26%; %ILS ([1]; Dose 160 mg/kg, 160 mg/kg): -70%
N.N.[Cl-].[Cl][Pt+].c1ccncc1 [Example 1, Cis-Chlorodiamminepyridineplatinum(II) Chloride]	1/6 and 0/6		4/6 and 6/6		0/6 and 4/6		0/6		0/7	-94%	0/6		30-Day Survivors ([1]; Dose 5 mg/kg, S180a in mice): 0/6; %ILS ([1]; Dose 5 mg/kg, 5 mg/kg): 19%; %ILS ([1]; Dose 20 mg/kg, 20 mg/kg): 73% and 70%; %ILS ([1]; Dose 40 mg/kg, 40 mg/kg): 91% and 100%; %ILS ([1]; Dose 40 mg/kg, listed as Cis-[Pt(NH₃)₂(py)Cl]Cl, 40 mg/kg): 100%
[Cl-].[NH3+][Pt-2]([NH3+])([Cl])[n+]1cccc(O)c1 (stereo not drawn) [Example 4, Cis-chlorodiammine-3-hydroxypyridineplatinum(II) Chloride]	0/6	10%	0/6	54%	1/6	69%	1/6	-8%	0/6	-75%	0/6	5%	
